In article PMC6054100, “Exploring the chemical space of the lysine-binding pocket of the first kringle domain of hepatocyte growth factor/scatter factor (HGF/SF) yields a new class of inhibitors of HGF/SF-MET binding” (Chemical Science, 2015):

Target: T1, NK1 (Homo sapiens, UniProt P14210)
Assay: SPR fragment library screening against NK1
Format: binding
Set-up: made in house; host or cells: Pichia pastoris
Settings: based on fragment screening; rank among the 71 NK1 hits (ESI Tables S3-S7)
Method: Supplementary Materials and Methods
Fragment library screening and data analysis
Met567 (soluble truncated f ragment of the MET ectodomain, residues 25- 567), NK1 and t he SPH domain were immobilized on CM5 chips by amine coupling. NK1 was diluted into 10 m M phosphate pH 7.0 and the SPH domain into 10 mM acetate pH 5.5 to a final concentration of 2.5 μM and 1 μM, respectively, for coupling. The immobilization wizard within the Biacore T100 software was set to “aim for immobiliz ed level” of 8000 RU to achieve complete saturation of the chip surface.
W ith minor deviations, the procedure and conditions outlined below were used f or a ll screening s of an in-house fragment library of 1338 members against individual target proteins. The running buffer was PBS pH 7.4, 0.05% Tween 20, 0.25% DMSO (1% DMSO for Met567). Fragments were stored as 100 mM stock solutions in DMSO. Prior to screening, fragment samples were diluted to 500 μM (1 mM f or Met567) in running buffer.
Screening was performed in 96- we ll plates at a flow rate of 30 μl min-1 with 1 min sample injection f ollowed by dissociation f or 1 min and surf ace regeneration using 1 M NaCl f or 30 […]
post-regeneration baseline exceeded the pre- sample baseline by more than 10 RU, a second regeneration cycle with 50% ethylene glycol was used. In order to be able to correct for small variations in DMSO concentration between samples, eight solvent samples ranging from 0.012 to 1.5% DMSO were injected every 40th cycle. To monitor the binding capacity of the NK1, SPH and Met567 surfaces throughout the screening, injections of 500 μM HEPES (NK1), 0.25 μM Met567 (SPH) and 0.2 μM NK1 and 1% DMSO (Met567) were carried out every 40th cycle. The flow cell temperature was 25°C. NK1 and the SPH domain were immobilized on the same chip (channels 2 and 3 respectively) and were theref ore screened in parallel. Met567 was screened separately and results are published in an accompanying paper (W in t er et al. 2015, in revision).
For data analysis, fir st, all responses were reference and solvent corrected. 1 Next, equilibrium binding for every fragment was determined and hits established by applying several filters: sensorgram shape, upper and lower threshold. Typical sensorgrams from fragment screening show “square curves” in SPR due to the fast on and off rates and fragments not showing this response were discarded from further analysis. Binding levels are represented as response units (RU) but the SPR signal is a convolution of multiple parameters including target coupling density, target -binding activity, target molecular weight and molecular weight of each injected fragment. To be able to identif y hits accurately and to be able to compare responses between different plates and targets, data were normalised against these factors. First the theoretical maximum response for each fragment was calculated using equation 1:
RRmmm = CCCCCCCC ddCdCdd× MMffmCmdCd (Equation 1)
This RUmax value diff ers for each protein target because it depends on the molecular weight of the protein and the amount of protein immobilized on the chip (coupling density). The RUmax was then used to calculate the normalised relative SPR response:
NNNNNNNNNN NNNNr NrN SSR NNNrNrNN = RRcppppcppc× 100% (Equation 2) […]
fragment should cause upon binding. 100% response would be 1:1 binding wit h levels above 100% implying over-stoichiometric binding. […]
Fragment library screening to identify small molecule binders

T1 sequence (P14210 32-210 isoform P14210-6 limits assumed): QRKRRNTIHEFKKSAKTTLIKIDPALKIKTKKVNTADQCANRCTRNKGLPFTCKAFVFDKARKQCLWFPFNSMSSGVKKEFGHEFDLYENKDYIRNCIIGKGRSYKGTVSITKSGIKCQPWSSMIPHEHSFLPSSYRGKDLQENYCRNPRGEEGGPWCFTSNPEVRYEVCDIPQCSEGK

Row | SMILES | Ranking order
1 | c1ccc2[nH]ncc2c1 [AT0381] | 44
2 | O=C(O)c1ccc2[nH]ncc2c1 [AT0541] | 38
3 | Nc1ncccn1 [CA023] | 46
4 | CC1(C(=O)O)CC2C=CC1C2 (stereo not drawn) [MB385] | 42
5 | Cc1cccc(CO)n1 [MB389] | 23
6 | Nc1ccc(F)cc1F [MB396] | 18
7 | Cc1cc(N)no1 [MB397] | 20
8 | Nc1ccncc1 [MB404] | 5
9 | OC12CC3CC(CC(C3)C1)C2 [MB405] | 40
10 | Nc1cccc(OC(F)(F)F)c1 [MB406] | 54
11 | Nc1cccc(S(N)(=O)=O)c1 [MB409] | 59
12 | NC(=O)c1ccc(-c2csnn2)cc1 [MB414] | 50
13 | CCOC(=O)c1cnc2n(c1=O)CCS2 [MB415] | 58
14 | O=C(O)c1coc2c1C(=O)CCC2 [MB417] | 17
15 | Cc1nc(C(C)(C)C)cs1 [MB887] | 32
16 | Cc1nn(C)c(C)c1N [MB893] | 36
17 | COc1cccc(OC)c1SC [MB894] | 51
18 | Cc1nc(CC(=O)O)cs1 [MB895] | 45

Next, values leading:

Row | Ranking order | SMILES
19 | 69 | O=C(O)c1ccccc1C(=O)c1ccc(F)cc1 [MB900]
20 | 63 | COC(=O)c1sc(C(C)(C)C)cc1N [MB914]
21 | 24 | N#Cc1ccsc1N [MB915]
22 | 64 | COC(=O)c1scc(C)c1Cl [MB916]
23 | 52 | Cc1csc(C(=O)O)c1 [MB921]
24 | 48 | FC(F)(F)c1cc[nH]n1 [MB925]
25 | 66 | Cn1ccc(C(F)(F)F)n1 [MB926]
26 | 41 | Cc1cc(N)n(C)n1 [MB935]
27 | 39 | Cc1cc(N)[nH]n1 [MB936]
28 | 65 | N#CCCNCC1CCCO1 (stereo not drawn) [MB975]
29 | 56 | Cc1ncsc1C(=O)O [MB996]
30 | 6 | CNCc1ccncc1 [MB1003]
31 | 60 | CC1CCN(C(=O)C2CCCCN2)CC1 (stereo not drawn) [MB1015]
32 | 61 | CCC1CCC(N)CC1 (stereo not drawn) [MB1016]

Same assay, conditions: normalised relative value against NK1; fragments 500 μM (ESI Tables S3-S7)

Row | SMILES | SPR response [%]
33 | c1ccc2[nH]ncc2c1 [AT0381] | 53
34 | O=C(O)c1ccc2[nH]ncc2c1 [AT0541] | 56
35 | Nc1ncccn1 [CA023] | 52
36 | CC1(C(=O)O)CC2C=CC1C2 (stereo not drawn) [MB385] | 54
37 | Cc1cccc(CO)n1 [MB389] | 72
38 | Nc1ccc(F)cc1F [MB396] | 83
39 | Cc1cc(N)no1 [MB397] | 81
40 | Nc1ccncc1 [MB404] | 118
41 | OC12CC3CC(CC(C3)C1)C2 [MB405] | 56
42 | Nc1cccc(OC(F)(F)F)c1 [MB406] | 42
43 | Nc1cccc(S(N)(=O)=O)c1 [MB409] | 36
44 | NC(=O)c1ccc(-c2csnn2)cc1 [MB414] | 50
45 | CCOC(=O)c1cnc2n(c1=O)CCS2 [MB415] | 37
46 | O=C(O)c1coc2c1C(=O)CCC2 [MB417] | 87
47 | Cc1nc(C(C)(C)C)cs1 [MB887] | 62
48 | Cc1nn(C)c(C)c1N [MB893] | 59
49 | COc1cccc(OC)c1SC [MB894] | 49
50 | Cc1nc(CC(=O)O)cs1 [MB895] | 53

More lines, now with the values ahead:

Row | SPR response [%] | SMILES
51 | 28 | O=C(O)c1ccccc1C(=O)c1ccc(F)cc1 [MB900]
52 | 34 | COC(=O)c1sc(C(C)(C)C)cc1N [MB914]
53 | 71 | N#Cc1ccsc1N [MB915]
54 | 34 | COC(=O)c1scc(C)c1Cl [MB916]
55 | 49 | Cc1csc(C(=O)O)c1 [MB921]
56 | 52 | FC(F)(F)c1cc[nH]n1 [MB925]
57 | 30 | Cn1ccc(C(F)(F)F)n1 [MB926]
58 | 54 | Cc1cc(N)n(C)n1 [MB935]
59 | 56 | Cc1cc(N)[nH]n1 [MB936]
60 | 33 | N#CCCNCC1CCCO1 (stereo not drawn) [MB975]
61 | 38 | Cc1ncsc1C(=O)O [MB996]
62 | 107 | CNCc1ccncc1 [MB1003]
63 | 35 | CC1CCN(C(=O)C2CCCCN2)CC1 (stereo not drawn) [MB1015]
64 | 35 | CCC1CCC(N)CC1 (stereo not drawn) [MB1016]

Same assay, conditions: normalised relative value against NK1; initial fragment screening, fragments 500 μM (Table 3)

Row | SPR response [%] | SMILES
65 | 52 | Nc1ncccn1 [CA023]
66 | 87 | O=C(O)c1coc2c1C(=O)CCC2 [MB417]
67 | 53 | Cc1nc(CC(=O)O)cs1 [MB895]

Row | SMILES | SPR response [%]
68 | c1ccc2[nH]ncc2c1 [AT0381] | 53

Target: T1, NK1
Assay: SPR steady-state binding to immobilized NK1 (Biacore T100)
Set-up: made in house; host or cells: Pichia pastoris
Settings: KD
Method: Binding constants of piperazine-like compounds and fragments were determined using a Biacore T100 instrument. NK1 was immobilized on a CM5 chip by amine coupling to a density of 6000 RU. Compounds were stored as 100 mM stock solutions in water and serial dilutions were prepared in the running buffer (PBS pH 7.4, 0.05% Tween 20). The compound solutions were injected onto the surface of the chip at a flow rate of 30 μL min^–1, contact time was 1 min and dissociation time 1 min. Sensorgrams were analysed using the Biacore T100 evaluation software and the binding constants determined.

Row | SMILES | Kd [µM]
69 | c1ccc2[nH]ncc2c1 [AT0381] | 740 ± 60

Same assay, conditions: steady-state binding constant from SPR (ESI Tables S3-S7); read-out: KD

Row | SMILES | Kd [µM]
70 | Cc1cccc(CO)n1 [MB389] | 4320
71 | Nc1ccc(F)cc1F [MB396] | 1100
72 | Nc1ccncc1 [MB404] | 2800
73 | Cc1nn(C)c(C)c1N [MB893] | 1500

The remaining lines, values ahead:

Row | Kd [µM] | SMILES
74 | 1600 | N#Cc1ccsc1N [MB915]
75 | 1300 | FC(F)(F)c1cc[nH]n1 [MB925]
76 | 1000 | Cc1cc(N)n(C)n1 [MB935]
77 | 30000 | Cc1cc(N)[nH]n1 [MB936]
78 | 6400 | CNCc1ccncc1 [MB1003]

Same assay, conditions: steady-state binding constant from SPR; fragment hits (Table 3, text); read-out: KD

Row | Kd [µM] | SMILES
79 | 770 ± 60 | Nc1ncccn1 [CA023]
80 | 420 ± 40 | O=C(O)c1coc2c1C(=O)CCC2 [MB417]
81 | 430 ± 50 | Cc1nc(CC(=O)O)cs1 [MB895]
